From ChEMBL document CHEMBL5705896 (ACS Chem Biol, 2013)
The source made the active and inactive calls. The rule behind the calls is not given here.

Legend:
[1] = target: T1, Histone-lysine N-methyltransferase EZH2 (Homo sapiens, UniProt Q15910); assay: Inhibition of EZH2 methyltransferase activity (unknown origin) in PRC2 complex using 3H-SAM as substrate by Scintillation proximity assay
Target sequence in this assay (Q15910 whole entry): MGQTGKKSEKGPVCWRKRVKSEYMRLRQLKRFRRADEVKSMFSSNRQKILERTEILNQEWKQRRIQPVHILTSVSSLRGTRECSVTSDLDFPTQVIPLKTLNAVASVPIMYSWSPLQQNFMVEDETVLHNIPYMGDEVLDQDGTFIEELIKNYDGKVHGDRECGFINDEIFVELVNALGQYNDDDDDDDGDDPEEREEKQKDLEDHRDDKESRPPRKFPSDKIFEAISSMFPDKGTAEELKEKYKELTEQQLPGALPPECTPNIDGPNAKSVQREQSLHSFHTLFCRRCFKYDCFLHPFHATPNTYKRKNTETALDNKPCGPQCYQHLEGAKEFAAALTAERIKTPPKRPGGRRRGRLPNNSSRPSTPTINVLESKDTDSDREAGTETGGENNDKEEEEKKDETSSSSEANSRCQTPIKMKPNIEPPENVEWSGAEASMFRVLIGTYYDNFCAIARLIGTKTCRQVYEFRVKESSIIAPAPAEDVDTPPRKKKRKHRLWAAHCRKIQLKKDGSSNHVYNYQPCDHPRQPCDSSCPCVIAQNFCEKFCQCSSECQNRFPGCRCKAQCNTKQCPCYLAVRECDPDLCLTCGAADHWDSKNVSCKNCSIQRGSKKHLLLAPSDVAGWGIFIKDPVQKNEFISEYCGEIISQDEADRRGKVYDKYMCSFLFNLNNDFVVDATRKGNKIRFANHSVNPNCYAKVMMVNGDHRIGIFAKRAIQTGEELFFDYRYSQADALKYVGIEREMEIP

[2] = target: Histone-lysine N-methyltransferase EZH2 (Mus musculus) (UniProt Q61188); assay: Binding affinity to EZH2 in mouse MEF cells expressing YPet fluorophore assessed as increase in fluorescence intensity in nucleus at 3.75 uM incubated for 15 mins; format: cell-based
Sequence of Histone-lysine N-methyltransferase EZH2 (Mus musculus) (Q61188 whole entry): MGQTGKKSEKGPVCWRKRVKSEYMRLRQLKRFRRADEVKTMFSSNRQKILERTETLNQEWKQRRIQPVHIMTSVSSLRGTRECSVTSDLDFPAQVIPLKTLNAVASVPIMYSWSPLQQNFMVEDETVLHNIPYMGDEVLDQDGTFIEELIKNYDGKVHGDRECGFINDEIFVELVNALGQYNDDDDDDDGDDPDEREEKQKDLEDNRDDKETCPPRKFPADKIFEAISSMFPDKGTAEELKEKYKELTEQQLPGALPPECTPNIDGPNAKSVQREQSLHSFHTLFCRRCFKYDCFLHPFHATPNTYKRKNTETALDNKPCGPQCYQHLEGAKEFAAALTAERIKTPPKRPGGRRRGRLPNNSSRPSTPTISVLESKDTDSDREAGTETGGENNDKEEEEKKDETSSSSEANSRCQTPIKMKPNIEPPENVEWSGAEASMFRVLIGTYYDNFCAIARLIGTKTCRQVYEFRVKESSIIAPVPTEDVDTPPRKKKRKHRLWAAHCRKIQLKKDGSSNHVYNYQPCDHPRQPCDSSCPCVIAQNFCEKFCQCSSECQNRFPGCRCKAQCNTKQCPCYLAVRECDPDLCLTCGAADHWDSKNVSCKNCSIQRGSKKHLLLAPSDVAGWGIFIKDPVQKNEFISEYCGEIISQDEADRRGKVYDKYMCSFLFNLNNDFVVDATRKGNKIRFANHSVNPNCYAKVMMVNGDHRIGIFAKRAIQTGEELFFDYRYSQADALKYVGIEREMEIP

[3] = target: T1, Histone-lysine N-methyltransferase EZH2; assay: Binding affinity to GFP-tagged EZH2 in HEK293 cells assessed as nuclear colocalization at 3.75 uM incubated for 15 mins by imaging based analysis; format: cell-based
Target sequence in this assay (Q15910 whole entry, looked up): as the sequence (Q15910 whole entry) above

[4] = target: Histone-lysine N-methyltransferase EZH1 (Homo sapiens, UniProt Q92800); assay: Inhibition of EZH1 methyltransferase activity (unknown origin) in PRC2 complex using 3H-SAM as substrate by Scintillation proximity assay
Sequence of Histone-lysine N-methyltransferase EZH1 (Q92800 whole entry): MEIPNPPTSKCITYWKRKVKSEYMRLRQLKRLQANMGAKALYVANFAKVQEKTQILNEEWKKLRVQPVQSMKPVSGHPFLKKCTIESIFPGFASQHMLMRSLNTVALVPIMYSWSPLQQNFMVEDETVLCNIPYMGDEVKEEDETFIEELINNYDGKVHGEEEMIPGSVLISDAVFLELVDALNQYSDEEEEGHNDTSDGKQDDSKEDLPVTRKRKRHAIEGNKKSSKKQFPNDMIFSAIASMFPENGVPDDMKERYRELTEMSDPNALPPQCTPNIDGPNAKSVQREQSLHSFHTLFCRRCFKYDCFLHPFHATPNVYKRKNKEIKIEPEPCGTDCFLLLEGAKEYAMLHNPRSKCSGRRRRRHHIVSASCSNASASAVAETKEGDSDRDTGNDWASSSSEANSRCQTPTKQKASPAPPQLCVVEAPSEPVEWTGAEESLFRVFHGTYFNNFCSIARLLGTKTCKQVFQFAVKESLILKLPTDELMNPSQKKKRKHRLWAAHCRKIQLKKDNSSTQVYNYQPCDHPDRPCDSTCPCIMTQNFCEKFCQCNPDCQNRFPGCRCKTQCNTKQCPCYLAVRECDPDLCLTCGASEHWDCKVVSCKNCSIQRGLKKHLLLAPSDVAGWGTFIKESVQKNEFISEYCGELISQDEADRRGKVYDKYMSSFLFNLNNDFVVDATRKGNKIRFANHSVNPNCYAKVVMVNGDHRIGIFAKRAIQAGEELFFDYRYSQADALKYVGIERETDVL

[5] = target: Histone-lysine N-methyltransferase EZH2 (Homo sapiens, UniProt Q15910, Y641F); assay: Inhibition of EZH2 Y641F mutant (unknown origin) using HMT as substrate incubated for 60 mins by luminescence based analysis
Sequence of Histone-lysine N-methyltransferase EZH2 (Homo sapiens, UniProt Q15910, Y641F) (Q15910 whole entry Y641F): as the sequence (Q15910 whole entry) above, with Y641F counted along it

[6] = system: DB; assay: Downregulation of H3K27me3 level in human DB cells at 3000 nM measured after 3 days; format: functional, cell-based; conditions: time 3.0 day
[7] = system: DB; assay: Downregulation of EZH2 level in human DB cells at 3000 nM measured after 3 days; format: functional, cell-based; conditions: time 3.0 day
[8] = system: DB; assay: Antiproliferative activity against human DB cells assessed as reduction in cell viability at 3000 nM measured after 8 days by cell proliferation assay; format: functional, cell-based; conditions: time 8.0 day
[9] = Cytotoxicity against human MCF-10A cells assessed as reduction in cell viability by alamar blue assay; format: toxicity, cell-based

Row | Structure (SMILES) | IC50 [1] [nM] | other results
1 | CCCc1cc(C)[nH]c(=O)c1CNC(=O)c1cc(-c2ccc(N3CCN(C)CC3)nc2)cc2c1cnn2C(C)C | < 10 | –
2 | CCCc1cc(C)[nH]c(=O)c1CNC(=O)c1cc(-c2ccc(F)cn2)cc2c1cnn2C(C)C | 10 | –
3 | CCCc1cc(C)[nH]c(=O)c1CNC(=O)c1cc(-c2ccc(N3CCN(CC)CC3)nc2)cc2c1cnn2C(C)C | < 10 | –
4 | CCCc1cc(C)[nH]c(=O)c1CNC(=O)c1cc(-c2ccc(N3CCN(CCCCc4cn(CCN5C(=O)/C(=C/C=C/C=C6\N(CCC(=O)OCOC(C)=O)c7ccc(C(=O)OCOC(C)=O)cc7C6(C)C)C(=O)N(CC)C5=O)nn4)CC3)nc2)cc2c1cnn2C(C)C | 21 | Activity [2]: Active; Activity [3]: Active
5 | CCCc1cc(C)[nH]c(=O)c1CNC(=O)c1cc(-c2ccc(F)cc2)cc2c1cnn2C(C)C | 63 | –
6 | CCCc1cc(C)n(C)c(=O)c1CN(C)C(=O)c1cc(-c2ccc(N3CCN(C(C)C)CC3)nc2)cc2c1cnn2C(C)C | 13000 | IC50 [4]: 62000 nM; IC50 [5]: > 200000 nM; Activity [6]: inactive; Activity [7]: inactive; Activity [8]: inactive; EC50 [9]: 27500 nM
7 | CCCc1cc(C)[nH]c(=O)c1CNC(=O)c1cc(-c2ccc(N3CCNCC3)nc2)cc2c1cnn2C(C)C | < 10 | –
8 | CCCc1cc(C)[nH]c(=O)c1CNC(=O)c1cc(-c2ccc(N3CCN(C(=O)CCOCCOCCOCCOCCOCCOCCOCCOCCOCCOCCOCCOCCNC(=O)CCCC[C@@H]4SC[C@@H]5NC(=O)N[C@@H]54)CC3)nc2)cc2c1cnn2C(C)C | 17 | –
